Measurements from PubChem BioAssay AID2423 (Broad Institute, 2010).
Results filed as inconclusive are left out. The source made the active and inactive calls. The rule behind the calls is not given here.

These compounds were tested on C. albicans CaCi-8 + fluconazole, Alamar Blue growth, 48 h (assay: resistant C. albicans growth inhibition with fluconazole, dose response, CaCi-8 strain, Alamar Blue fluorescence (AID 2423)).

Row | Structure (SMILES) | EC50
1 | CN(/C(=N/S(=O)(=O)c1cccs1)c1ccccc1)c1ccc(O)cc1 | > 15000 nM (inactive)
2 | CCCCOc1cccc(C(=O)NNC(=S)NC2CCCCC2)c1 | 8740 nM
3 | CN(C)S(=O)(=O)c1cccc(NC(=S)N/N=C/c2cc(Br)ccc2O)c1 | 3840 nM
4 | COc1ccccc1-n1c(C)cc(SC)c(C(C)=O)c1=S | > 15000 nM (inactive)
5 | CCn1c(=O)n(CC(=O)N2CCN(c3ccccc3F)CC2)c(=O)c2ccccc21 | > 16000 nM (inactive)
6 | CNC(=S)N1N=C(c2ccccc2)CC1c1ccccc1Cl (centres undefined) | > 16000 nM (inactive)
7 | Oc1c(C(c2ccccn2)N2CCOCC2)ccc2cccnc12 (centres undefined) | 4860 nM
8 | O=C(CCS(=O)(=O)c1ccccc1)Nc1ncc([N+](=O)[O-])s1 | > 15000 nM (inactive)
9 | CCN=c1scc(-c2ccc3c(c2)NC(=O)CO3)n1N=C1CCCC1 | 7220 nM
10 | c1csc(CNc2ncnc3sccc23)c1 | 1760 nM
11 | CN(C)c1ccc(-c2n(C)c3ccccc3[n+]2C)cc1 | 3930 nM
12 | O=C(c1ccc2c(c1)OCO2)N1CCC2(CC1)Oc1ccc(Cl)cc1C(=O)C21CC(c2cccnc2)=NO1 (centres undefined) | 438 nM
13 | O=C(Nc1nnc(-c2ccc(F)cc2)o1)c1cccc([N+](=O)[O-])c1 | 1010 nM
14 | Clc1ccc(CONc2ncnc3nonc23)c(Cl)c1 | 328 nM
15 | CCn1nnnc1NC(=O)c1cc(Cl)c(OC)c(Cl)c1 | 5450 nM
16 | Cc1ccc2ccc3ccc(C)nc3c2n1 | 999 nM
17 | Oc1c(CN2CCc3ccccc3C2)cc(Cl)c2cccnc12 | 849 nM
18 | Cc1cccc(NCc2ccc(O)c3ncccc23)c1C | 11800 nM
19 | Cc1sc(NC(=O)c2ccc(Br)s2)c(C(N)=O)c1C | 952 nM
20 | COc1ccc(-n2c(-c3cccc(C)c3[N+](=O)[O-])n[nH]c2=S)cc1 | 316 nM
21 | CC1CCC(C(=O)c2c(O)c3ccccc3oc2=O)CC1 (centres undefined) | 2900 nM
22 | COc1ccc(-c2nnc(NC(=O)c3ccc(S(=O)(=O)N4CCc5ccccc5C4)cc3)o2)cc1 | 747 nM
23 | Oc1ccc(Cl)cc1C1=NNC(c2cc(Br)cc3c2OCOC3)C1 (centres undefined) | > 16000 nM (inactive)
24 | CCCCNC(=O)c1cn(C)c2ccc(S(=O)(=O)N3CCCC3)cc2c1=O | > 15000 nM (inactive)
25 | O=c1c2ccccc2nc(N/N=C/c2c(O)ccc3ccccc23)n1O | 238 nM
26 | CCCc1cc(C(=O)Nc2sc3c(c2C#N)CCC3)no1 | > 15000 nM (inactive)
27 | c1ccc(CSc2nnc(-c3cccs3)n2Cc2ccco2)cc1 | 4720 nM

Row | Structure (SMILES) | EC50
28 | COc1cccc(/C=N/Nc2nccnc2Cl)c1O | 1800 nM
29 | Cc1[nH]n(-c2ccccc2)c(=O)c1/C=N/Nc1nncc(-c2ccccc2)n1 | 2670 nM
30 | COc1cccc2sc(Nc3nnc(-c4ccc(F)cc4)o3)nc12 | 1240 nM
31 | O=C(Nc1nnc(C2COc3ccccc3O2)o1)c1ccc(F)cc1 (centres undefined) | 910 nM
32 | Cc1ccc(NC(=O)CSc2nnc([C@@H](N)Cc3c[nH]c4ccccc34)o2)c(C)c1 | > 15000 nM (inactive)
33 | O=c1c2ccc(Cl)cc2nc(-c2ccc([N+](=O)[O-])cc2)n1O | 1100 nM
34 | COc1cccc(/C=N/NC(=O)c2nc(-c3ccccc3)cc(-c3ccccc3)n2)c1O | 1760 nM
35 | COc1ccc(C(=O)NC(=S)NNC(=O)CCc2ccccc2)cc1 | 3200 nM
36 | CCC(=O)NC(c1ccc(Cl)cc1Cl)c1ccc2cccnc2c1O (centres undefined) | 714 nM
37 | [O-][n+]1cccc2c(Br)cc(Br)c(O)c21 | 652 nM
38 | CCOc1cc(/C=C2\SC(=S)N(NS(=O)(=O)c3ccccc3)C2=O)ccc1O | 2020 nM
39 | CN(C)c1ccc(NC(=O)C2C3C=CC(C3)C2C(=O)O)cc1 (centres undefined) | > 16000 nM (inactive)
40 | C(=C\c1ccccc1)/CN1CCN(c2ncnc3c2oc2ccccc23)CC1 | < 120 nM
41 | CCc1cc(C(=O)NC2CCCc3c2cnn3-c2cccc(C)c2C)n(C)n1 (centres undefined) | 232 nM
42 | CN(CCCNC(=O)CCCOc1cc(=O)n(C)c2ccccc12)Cc1ccccc1 | > 16000 nM (inactive)
43 | CCN(CC)c1ccc(/C=C/c2ccc3ccc(OC)cc3[n+]2CC)cc1 | 149 nM
44 | COc1cc(OC)cc(C(=O)NNC(=O)c2cc3ccccc3cc2O)c1 | 9180 nM
45 | CCOC(=O)CC(/C(C)=N\O)c1ccccc1 (centres undefined) | > 16000 nM (inactive)
46 | COc1ccc(C(=O)N2c3ccccc3C=CC2C#N)cc1 (centres undefined) | 1760 nM
47 | COc1cc(OC)cc(C(=O)NNC(=O)Cc2ccc(OC)c(S(=O)(=O)N3CCOCC3)c2)c1 | > 15000 nM (inactive)
48 | Cc1ccc(S(=O)(=O)Nc2ccc(O)c3ncccc23)cc1 | 3310 nM
49 | CCCCC(=O)NC(c1ccc(Cl)cc1Cl)c1ccc2cccnc2c1O (centres undefined) | 407 nM
50 | Cc1ccc(/C=N/NC(=O)C2=NNC(c3ccccc3)(c3ccccc3)C2)c(O)c1 | > 16000 nM (inactive)
51 | Cc1ccc(C)c(S(=O)(=O)N2CCN(Cc3ccc(O)c4ncccc34)CC2)c1 | 2120 nM
52 | CCCCCCn1c(=O)c(-c2ccccc2)c(O)c2ccccc21 | 9420 nM
53 | Cc1ccc2nsnc2c1NC(=O)COc1ccccc1F | > 15000 nM (inactive)
54 | Cn1c(=O)c(C(=O)NCCc2ccccc2)c(O)c2ccccc21 | 13000 nM
